Results: ChEMBL document CHEMBL1158595, “2' biaryl amides as novel and subtype selective M1 agonists. Part II: Further optimization and profiling” (Bioorg Med Chem Lett, 2010)
The source made the active and inactive calls. The calls are words filed in the database; no cut-off is given here.

Key:
[1] = target: T1, Muscarinic acetylcholine receptor M3 (Homo sapiens, UniProt P20309); assay: Inhibition of human muscarinic M3 receptor expressed in CHO cells; type: cell-based
Target sequence in this assay (P20309 whole entry): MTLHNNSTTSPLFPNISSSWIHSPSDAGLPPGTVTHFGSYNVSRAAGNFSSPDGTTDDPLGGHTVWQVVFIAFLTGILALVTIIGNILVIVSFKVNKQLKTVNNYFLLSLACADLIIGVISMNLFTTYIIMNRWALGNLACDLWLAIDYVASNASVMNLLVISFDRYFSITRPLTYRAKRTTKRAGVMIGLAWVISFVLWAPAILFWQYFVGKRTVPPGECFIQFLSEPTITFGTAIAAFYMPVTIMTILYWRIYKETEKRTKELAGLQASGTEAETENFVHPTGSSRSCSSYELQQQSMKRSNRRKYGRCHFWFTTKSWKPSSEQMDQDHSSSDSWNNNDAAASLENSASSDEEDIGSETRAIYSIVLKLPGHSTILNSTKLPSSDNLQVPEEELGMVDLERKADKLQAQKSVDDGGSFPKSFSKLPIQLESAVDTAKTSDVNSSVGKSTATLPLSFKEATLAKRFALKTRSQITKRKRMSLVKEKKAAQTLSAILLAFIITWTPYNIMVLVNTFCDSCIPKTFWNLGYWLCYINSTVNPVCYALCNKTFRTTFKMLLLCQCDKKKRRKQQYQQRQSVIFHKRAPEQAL

[2] = target: T2, Muscarinic acetylcholine receptor M1 (Homo sapiens, UniProt P11229); assay: Agonist activity at human muscarinic M1 receptor expressed in CHO cells assessed as effect on acetylcholine-induced intracellular calcium level by FLIPR assay; type: functional, cell-based
T2 sequence (P11229 whole entry): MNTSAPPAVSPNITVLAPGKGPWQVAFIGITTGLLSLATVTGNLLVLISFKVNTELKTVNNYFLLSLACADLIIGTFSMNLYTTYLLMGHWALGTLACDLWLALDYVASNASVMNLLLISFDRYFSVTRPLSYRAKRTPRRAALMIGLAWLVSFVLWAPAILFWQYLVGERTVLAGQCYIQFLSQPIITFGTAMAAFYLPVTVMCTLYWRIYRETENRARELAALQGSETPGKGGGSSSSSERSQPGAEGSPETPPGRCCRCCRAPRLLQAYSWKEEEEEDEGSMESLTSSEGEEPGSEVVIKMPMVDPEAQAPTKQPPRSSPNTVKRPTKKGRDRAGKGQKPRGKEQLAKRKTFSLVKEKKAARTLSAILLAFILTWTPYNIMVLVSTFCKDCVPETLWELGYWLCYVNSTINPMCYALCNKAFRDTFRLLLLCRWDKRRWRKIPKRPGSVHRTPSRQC

[3] = target: T3, Muscarinic acetylcholine receptor M1 (Homo sapiens) (UniProt P11229); assay: Intrinsic activity at human muscarinic M1 receptor expressed in CHO cells assessed as effect on acetylcholine-induced intracellular calcium level by FLIPR assay relative to acetylcholine; type: functional, cell-based
T3 sequence (whole entry): T2 sequence (P11229 whole entry)

[4] = target: T4, Muscarinic acetylcholine receptor M4 (Homo sapiens, UniProt P08173); assay: Inhibition of human muscarinic M4 receptor expressed in CHO cells; type: cell-based
T4 sequence (P08173 whole entry): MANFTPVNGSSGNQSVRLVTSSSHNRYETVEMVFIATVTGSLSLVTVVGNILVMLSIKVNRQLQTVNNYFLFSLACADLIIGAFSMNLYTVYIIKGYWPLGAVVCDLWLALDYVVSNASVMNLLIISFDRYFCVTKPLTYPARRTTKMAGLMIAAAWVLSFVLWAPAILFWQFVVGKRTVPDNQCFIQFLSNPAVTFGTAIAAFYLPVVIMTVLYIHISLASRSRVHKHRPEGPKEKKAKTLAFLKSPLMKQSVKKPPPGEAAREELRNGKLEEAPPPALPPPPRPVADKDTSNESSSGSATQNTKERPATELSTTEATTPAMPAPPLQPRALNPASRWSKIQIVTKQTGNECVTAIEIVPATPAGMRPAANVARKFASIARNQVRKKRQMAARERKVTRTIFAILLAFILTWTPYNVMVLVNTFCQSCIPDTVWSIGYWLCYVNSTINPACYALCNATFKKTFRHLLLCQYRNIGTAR

Rattus norvegicus [5] = assay: AUC in rat at 3 mg/kg, po; type: ADME, organism-based, Plasma; parameters: dose 3 mg/kg, route oral; conditions: in vivo
[6] = target: T5, Muscarinic acetylcholine receptor M5 (Homo sapiens, UniProt P08912); assay: Inhibition of human muscarinic M5 receptor expressed in CHO cells; type: cell-based
T5 sequence (P08912 whole entry): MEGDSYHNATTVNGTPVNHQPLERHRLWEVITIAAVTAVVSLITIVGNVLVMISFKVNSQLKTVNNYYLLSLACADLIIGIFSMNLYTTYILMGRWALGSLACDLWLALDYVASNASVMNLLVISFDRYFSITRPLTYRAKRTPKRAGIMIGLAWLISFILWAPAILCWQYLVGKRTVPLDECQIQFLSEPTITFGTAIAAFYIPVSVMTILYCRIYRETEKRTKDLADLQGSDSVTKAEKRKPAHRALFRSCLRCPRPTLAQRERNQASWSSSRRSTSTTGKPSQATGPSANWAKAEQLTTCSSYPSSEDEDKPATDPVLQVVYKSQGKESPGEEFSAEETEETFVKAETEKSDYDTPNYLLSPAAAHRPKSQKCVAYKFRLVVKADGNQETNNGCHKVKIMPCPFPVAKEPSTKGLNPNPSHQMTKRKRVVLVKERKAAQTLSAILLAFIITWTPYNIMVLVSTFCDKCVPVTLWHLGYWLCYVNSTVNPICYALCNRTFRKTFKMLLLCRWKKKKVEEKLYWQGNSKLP

[7] = Ratio of drug level in brain to blood in rat at 3 mg/kg, po; type: ADME, organism-based; parameters: dose 3 mg/kg, route oral
[8] = Half life in rat at 3 mg/kg, po; type: ADME, organism-based; parameters: dose 3 mg/kg, route oral; conditions: in vivo
[9] = target: T6, Muscarinic acetylcholine receptor M2 (Homo sapiens, UniProt P08172); assay: Inhibition of human muscarinic M2 receptor expressed in CHO cells; type: cell-based
T6 sequence (P08172 whole entry): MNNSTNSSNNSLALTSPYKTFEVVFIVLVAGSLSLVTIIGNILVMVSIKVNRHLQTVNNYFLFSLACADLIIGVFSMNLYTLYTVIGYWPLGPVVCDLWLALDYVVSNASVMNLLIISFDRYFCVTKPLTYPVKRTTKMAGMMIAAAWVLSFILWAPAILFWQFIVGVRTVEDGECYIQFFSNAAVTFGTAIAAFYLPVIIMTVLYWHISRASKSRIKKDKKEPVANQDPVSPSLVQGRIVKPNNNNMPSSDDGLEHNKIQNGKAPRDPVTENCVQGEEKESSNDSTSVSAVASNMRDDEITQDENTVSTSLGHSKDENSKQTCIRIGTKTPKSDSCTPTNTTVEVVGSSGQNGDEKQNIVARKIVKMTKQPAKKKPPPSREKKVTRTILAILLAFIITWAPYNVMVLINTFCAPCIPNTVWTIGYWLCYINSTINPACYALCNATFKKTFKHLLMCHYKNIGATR

Homo sapiens [10] = organism: Homo sapiens; assay: Selectivity ratio of human muscarinic M5 receptor to human muscarinic M1 receptor
Homo sapiens [11] = organism: Homo sapiens; assay: Selectivity ratio of human muscarinic M4 receptor to human muscarinic M1 receptor
[12] = target: Muscarinic acetylcholine receptor M1 and M3 (Homo sapiens) (UniProt P20309+P11229); assay: Selectivity ratio of human muscarinic M3 receptor to human muscarinic M1 receptor
Muscarinic acetylcholine receptor M1 and M3 (Homo sapiens), sequence (P20309 whole entry, looked up, one chain of several): as the sequence (P20309 whole entry) above

[13] = target: Muscarinic acetylcholine receptors; M1 & M2 (Homo sapiens) (UniProt P11229+P08172); assay: Selectivity ratio of human muscarinic M2 receptor to human muscarinic M1 receptor
Rattus norvegicus [14] = assay: AUC in rat at 10 mg/kg, sc; type: ADME, organism-based, Plasma; parameters: dose 10 mg/kg, route subcutaneous; conditions: in vivo
[15] = target: T1, Muscarinic acetylcholine receptor M3; assay: Agonist activity at human muscarinic M3 receptor expressed in CHO cells assessed as effect on acetylcholine-induced intracellular calcium level by FLIPR assay; type: functional, cell-based
Target sequence in this assay (P20309 whole entry, looked up): as the sequence (P20309 whole entry) above

[16] = Ratio of drug level in brain to blood in rat at 10 mg/kg, sc; type: ADME, organism-based; parameters: dose 10 mg/kg, route subcutaneous
[17] = target: T7, Muscarinic acetylcholine receptor M5 (Homo sapiens) (UniProt P08912); assay: Agonist activity at human muscarinic M5 receptor expressed in CHO cells assessed as effect on acetylcholine-induced intracellular calcium level by FLIPR assay; type: functional, cell-based
T7 sequence (whole entry): T5 sequence (P08912 whole entry)

[18] = Half life in rat at 10 mg/kg, sc; type: ADME, organism-based; parameters: dose 10 mg/kg, route subcutaneous; conditions: in vivo
[19] = target: T8, Muscarinic acetylcholine receptor M2 (Homo sapiens) (UniProt P08172); assay: Agonist activity at human muscarinic M2 receptor expressed in CHO cells assessed as effect on acetylcholine-induced intracellular calcium level by FLIPR assay; type: functional, cell-based
T8 sequence (whole entry): T6 sequence (P08172 whole entry)

[20] = target: T9, Muscarinic acetylcholine receptor M4 (Homo sapiens) (UniProt P08173); assay: Agonist activity at human muscarinic M4 receptor expressed in CHO cells assessed as effect on acetylcholine-induced intracellular calcium level by FLIPR assay; type: functional, cell-based
T9 sequence (whole entry): T4 sequence (P08173 whole entry)

Row | Compound | IC50 [1] [nM] | EC50 [2] [nM] | Intrinsic activity [3] [%] | further results
1 | O=C(NCC1CCNCC1)c1c(F)cccc1-c1cc(Cl)ccc1Cl | 1260 | 31.6 | 92 | 
2 | O=C(NCC1=CCNCC1)c1c(F)cccc1-c1cccc(Cl)c1 | 3160 | 3.16 | 91 | IC50 [4]: 7.94 µM; IC50 [6]: 1580 nM; IC50 [9]: 1260 nM
3 | CC[C@H]1CNCC[C@@H]1CNC(=O)c1c(F)cccc1-c1cccc(Cl)c1 | 10000 | 39.8 | 92 | 
4 | C[C@H]1CNCC[C@@H]1CNC(=O)c1c(F)cccc1-c1cccc(Cl)c1 (relative stereo) | 39.8 | 0.794 | 116 | AUC (Rattus norvegicus [14]): 1655 ng·h/g; Activity [15]: inactive; IC50 [4]: 0.158 µM; IC50 [6]: 501 nM; Kp [16]: 0.9; IC50 [9]: 200 nM; Activity [17]: inactive; half-life [18]: 138 min; Activity [19]: inactive; Activity [20]: inactive
5 | O=C(NCc1ccccc1-c1cccc(Cl)c1)C1CCNCC1 | 2000 | 501 | 81 | 
6 | O=C(NC[C@H]1CCNC[C@H]1F)c1c(F)cccc1-c1cccc(Cl)c1 | 10000 | 158 | 68 | 
7 | O=S(=O)(CCC1CCNCC1)c1ccccc1-c1cccc(Cl)c1 | 20 | 63.1 | 71 | 
8 | Fc1cccc(-c2cc(Cl)ccc2Cl)c1-c1nc(C2CCNCC2)no1 | 3980 | 501 | 65 | 
9 | O=C(NCC1(F)CCNCC1)c1c(F)cccc1-c1cccc(Cl)c1 | 1260 | 63.1 | 87 | 

The remaining compounds from weak to strong by EC50 [2], led by results:

Row | IC50 [1] [nM] | EC50 [2] [nM] | Intrinsic activity [3] [%] | Compound | further results
10 |  | 251 |  | O=C(NCC1CCNCC1)c1ccccc1-c1nc(Cl)cs1 | Ratio (Homo sapiens [10]): 100; Ratio (Homo sapiens [11]): 100; EC50 [4]: > 10 µM; EC50 [1]: > 10 µM; EC50 [6]: > 10 µM; Ratio [12]: 100; EC50 [9]: > 10 µM; Ratio [13]: 100
11 | 10000 | 158 | 74 | O=C(NCC1=C(F)CNCC1)c1c(-c2cccc(Cl)c2)ccc(Cl)c1F | 
12 | 126 | 158 | 74 | O=C(Cc1ccccc1-c1cccc(Cl)c1)NC1CCNCC1 | 
13 | 2510 | 20 | 92 | C[C@H]1CNCC[C@H]1CNC(=O)c1c(F)cccc1-c1cccc(Cl)c1 (relative stereo) | 
14 | 5010 | 10 | 85 | C[C@H]1CNCC[C@]1(F)CNC(=O)c1c(F)cccc1-c1cccc(Cl)c1 | IC50 [4]: 3.16 µM; AUC (Rattus norvegicus [5]): 2221 ng·h/g; IC50 [6]: 6310 nM; Kp [7]: 0.3; half-life [8]: 180 min; IC50 [9]: 2510 nM
